Source: the supplement of paper PMC11061612

Key:
Experiment in all cases: combination Emax (second highest fraction inhibited in the dose matrix, 72 h); higher = more inhibition; extreme values may be limits of the assay
[1] = tested on: WSU-NHL (B-Cell Non-Hodgkin's Lymphoma)
Summary of the method: (§1)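 Cell lines in DMEM/F12 or RPMI with 10% FBS were plated in 1536-well plates, held 24 hours at 37°C, 5% CO2, then given two-drug dose matrices for 72 hours (DMSO typically 0.2%). Viability was read by CellTiter-Glo 2.0 luminescence and scaled as inhibition from 0 (vehicle wells) to 1 (blank wells). Combination Emax is the second-highest inhibition in the matrix; Bliss excess is observed combination effect minus expected EA + EB − EA·EB, EA and EB being single-agent effects.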

[2] = tested on: ALL-PO (B-Lymphoblastic Leukemia)
Summary of the method: as §1

[3] = tested on: ESS-1 (Other Solid Carcinomas)
Summary of the method: as §1

[4] = tested on: NCI-H524 (Small Cell Lung Carcinoma)
Summary of the method: as §1

[5] = tested on: TGBC1TKB (Biliary Tract Carcinoma)
Summary of the method: as §1

[6] = tested on: OV-56 (Ovarian Carcinoma)
Summary of the method: as §1

[7] = tested on: BE-13 (T-Lymphoblastic Leukemia)
Summary of the method: as §1

[8] = tested on: OE21 (Esophageal Squamous Cell Carcinoma)
Summary of the method: as §1

[9] = tested on: L-428 (Hodgkin's Lymphoma)
Summary of the method: as §1

GAMG (Glioblastoma) = tested on: GAMG (Glioblastoma)
Summary of the method: as §1

[10] = tested on: SNU-16 (Gastric Carcinoma)
Summary of the method: as §1

BE2-M17 (Neuroblastoma) = tested on: BE2-M17 (Neuroblastoma)
Summary of the method: as §1

MPP-89 (Mesothelioma) = tested on: MPP-89 (Mesothelioma)
Summary of the method: as §1

[11] = tested on: NCI-H209 (Small Cell Lung Carcinoma)
Summary of the method: as §1

[12] = tested on: BFTC-909 (Kidney Carcinoma)
Summary of the method: as §1

A673 (Ewing's Sarcoma) = tested on: A673 (Ewing's Sarcoma)
Summary of the method: as §1

[13] = tested on: HuH-7 (Hepatocellular Carcinoma)
Summary of the method: as §1

[14] = tested on: HH (T-Cell Non-Hodgkin's Lymphoma)
Summary of the method: as §1

[15] = tested on: YAPC (Pancreatic Carcinoma)
Summary of the method: as §1

NCI-H2052 (Mesothelioma) = tested on: NCI-H2052 (Mesothelioma)
Summary of the method: as §1

| SMILES | combination Emax [1] | combination Emax [2] | combination Emax [3] | combination Emax [4] | combination Emax [5] | combination Emax [6] | combination Emax [7] | combination Emax [8] | combination Emax [9] | combination Emax (GAMG (Glioblastoma)) | combination Emax [10] | combination Emax (BE2-M17 (Neuroblastoma)) | combination Emax (MPP-89 (Mesothelioma)) | combination Emax [11] | combination Emax [12] | combination Emax (A673 (Ewing's Sarcoma)) | combination Emax [13] | combination Emax [14] | combination Emax [15] | combination Emax (NCI-H2052 (Mesothelioma)) |
| --- | --- | --- | --- | --- | --- | --- | --- | --- | --- | --- | --- | --- | --- | --- | --- | --- | --- | --- | --- | --- |
| Cc1cc2ncnn2cc1Nc1ncc2c(n1)n(C1CCOCC1)c(=O)n2C [AZD7648] + C[C@@H]1COCCN1C2=NC(=NC(=C2)C3(CC3)[S@](=N)(=O)C)C4=C5C=CNC5=NC=C4 [AZD6738] (first compound max 10 µM, 7x7, partner max 10 µM) | 1 | 0.925 | 0.971 | 0.759 | 0.526 | 0.734 | 0.757 | 0.74 | 0.794 | 0.681 | 0.984 | 0.844 | 0.564 | 0.691 | 0.835 | 0.809 | 0.215 | 0.337 | 0.335 | 0.413 |
| CN(CCO)CC[C@H](CSc1ccccc1)Nc1ccc(S(=O)(=O)NC(=O)c2ccc(N3CCC([C@@H](O)c4ccccc4-c4ccc(Cl)cc4)CC3)cc2)cc1S(=O)(=O)C(F)(F)F [AZD4320] + Cc1cc2ncnn2cc1Nc1ncc2c(n1)n(C1CCOCC1)c(=O)n2C [AZD7648] (first compound max 1 µM, 7x7, partner max 10 µM) | 0.86 | 0.992 | 0.502 | 0.822 | 0.577 | 0.149 | 0.981 | 0.17 | 0.844 | 0.286 | 0.3 | 0.369 | 0.281 | 1 | 0.246 | 0.937 | 0.279 | 0.265 | 0.103 | 0.245 |
| COc1cc2c(cc1OCCCCCOc1cc3c(cc1OC)C(=O)N1C=C(C)C[C@H]1C=N3)N=C[C@@H]1CC(C)=CN1C2=O [SG3199] + O=C(c1cc(Cc2n[nH]c(=O)c3ccccc23)ccc1F)N1CCN(C(=O)C2CC2)CC1 [Olaparib] (first compound max 0.001 µM, 7x7, partner max 10 µM) | 0.763 | 0.646 | 0.346 | 0.196 | 0.0857 | 0.131 | 0.283 | 0.133 | 0.0689 | 0.104 | 0.363 | 0.299 | 0.0885 | 0.913 | 0.0989 | 0.563 | 0.12 | 0 | 0.0017 | 0.0807 |
| CN(CCO)CC[C@H](CSc1ccccc1)Nc1ccc(S(=O)(=O)NC(=O)c2ccc(N3CCC([C@@H](O)c4ccccc4-c4ccc(Cl)cc4)CC3)cc2)cc1S(=O)(=O)C(F)(F)F [AZD4320] + C[C@@H]1COCCN1C2=NC(=NC(=C2)C3(CC3)[S@](=N)(=O)C)C4=C5C=CNC5=NC=C4 [AZD6738] (first compound max 1 µM, 7x7, partner max 10 µM) | 0.968 | 1 | 0.992 | 0.939 | 0.666 | 0.836 | 1 | 0.84 | 0.956 | 0.694 | 0.994 | 0.93 | 0.794 | 1 | 0.997 | 1 | 0.725 | 0.404 | 0.251 | 0.439 |
| Cc1cc2ncnn2cc1Nc1ncc2c(n1)n(C1CCOCC1)c(=O)n2C [AZD7648] + CN(C)CCCOc1ccc(-c2ccc3ncc4c(c3c2)n(C2CCOCC2)c(=O)n4C)cn1 [AZD0156] (first compound max 10 µM, 7x7, partner max 1 µM) | 0.498 | 0.265 | 0.481 | 0.312 | 0.398 | 0.224 | 0.323 | 0.554 | 0.37 | 0.402 | 0.239 | 0.283 | 0.302 | 0.237 | 0.338 | 0.336 | 0.201 | 0.285 | 0.209 | 0.428 |
